From US20250213555A1, “SUBSTITUTED TETRAHYDROFURAN ANALOGS AS MODULATORS OF SODIUM CHANNELS” (VERTEX PHARMACEUTICALS INCORPORATED, priority 2021, published 2025)

Biological target: human Nav 1.8 (Homo sapiens, UniProt Q9Y5Y9)
Assay: E-VIPR assay detecting and measuring Nav inhibition properties
Type: cell-based
Conditions: HEK cells expressing a truncated form of human Nav 1.8; compound numbers without "*" (not marked as run in the presence of human serum); read-out: measured IC50 value in the E-VIPR Assay
Method in brief: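 Nav inhibition was read by E-VIPR: cells were electrically stimulated while coumarin/oxonol FRET emissions were recorded. Cells were HEK expressing a truncated human Nav 1.8 and co-transduced with KIR2.1, and were assayed in 25% final human serum.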

human Nav 1.8, sequence (Q9Y5Y9 126-399 limits assumed): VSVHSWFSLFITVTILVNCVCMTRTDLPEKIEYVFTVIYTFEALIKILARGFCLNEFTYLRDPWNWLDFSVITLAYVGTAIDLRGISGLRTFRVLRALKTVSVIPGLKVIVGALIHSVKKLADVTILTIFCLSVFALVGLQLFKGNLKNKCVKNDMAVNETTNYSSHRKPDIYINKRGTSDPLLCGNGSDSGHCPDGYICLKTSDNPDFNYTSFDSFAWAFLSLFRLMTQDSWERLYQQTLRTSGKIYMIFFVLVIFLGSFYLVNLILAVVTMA
human Nav 1.8, sequence (Q9Y5Y9 660-890 limits assumed): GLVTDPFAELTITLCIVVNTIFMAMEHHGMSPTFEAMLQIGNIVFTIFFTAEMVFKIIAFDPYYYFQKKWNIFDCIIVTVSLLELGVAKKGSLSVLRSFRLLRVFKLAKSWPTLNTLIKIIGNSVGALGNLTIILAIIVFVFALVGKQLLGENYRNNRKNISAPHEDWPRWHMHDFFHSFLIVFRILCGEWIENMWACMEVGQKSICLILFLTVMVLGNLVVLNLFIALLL
human Nav 1.8, sequence (Q9Y5Y9 1148-1722 limits assumed): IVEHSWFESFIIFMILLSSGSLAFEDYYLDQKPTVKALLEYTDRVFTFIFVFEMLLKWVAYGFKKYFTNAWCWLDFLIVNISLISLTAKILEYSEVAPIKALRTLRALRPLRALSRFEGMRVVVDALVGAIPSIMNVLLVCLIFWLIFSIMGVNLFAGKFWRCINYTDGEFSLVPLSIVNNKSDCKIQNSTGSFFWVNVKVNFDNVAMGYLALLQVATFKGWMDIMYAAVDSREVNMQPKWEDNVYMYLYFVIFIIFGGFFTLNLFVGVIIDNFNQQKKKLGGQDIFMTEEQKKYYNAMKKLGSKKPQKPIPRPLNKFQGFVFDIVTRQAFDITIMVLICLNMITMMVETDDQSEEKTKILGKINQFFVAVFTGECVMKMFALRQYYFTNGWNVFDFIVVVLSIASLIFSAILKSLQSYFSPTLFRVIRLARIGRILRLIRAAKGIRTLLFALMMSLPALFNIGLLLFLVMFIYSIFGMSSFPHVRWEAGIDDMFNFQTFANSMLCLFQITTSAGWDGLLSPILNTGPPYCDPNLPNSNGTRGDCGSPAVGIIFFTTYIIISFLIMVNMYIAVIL

SMILES | IC50
COc1c([C@H]2[C@H](C(=O)Nc3ccnc(C(=O)N4C[C@@H](C)N(C)C[C@H]4C)c3)O[C@@](C)(C(F)(F)F)[C@H]2C)ccc(F)c1F [Compound 289, (2R,3S,4S,5R)-3-(3,4-difluoro-2-methoxyphenyl)-4,5-dimethyl-5-(trifluoromethyl)-N-(2-((2R,5R)-2,4,5-trimethylpiperazine-1-carbonyl)pyridin-4-yl)tetrahydrofuran-2-carboxamide] | 10 to 100 nM
COc1c([C@H]2[C@H](C(=O)Nc3ccnc(C(=O)N(C)[C@H]4CN(C)C[C@@H]4OC)c3)O[C@@](C)(C(F)(F)F)[C@H]2C)ccc(F)c1F [Compound 286, 4-((2R,3S,4S,5R)-3-(3,4-difluoro-2-methoxyphenyl)-4,5-dimethyl-5-(trifluoromethyl)tetrahydrofuran-2-carboxamido)-N-((3S,4S)-4-methoxy-1-methylpyrrolidin-3-yl)-N-methylpicolinamide] | < 10 nM
CNC(=O)c1cc(NC(=O)[C@@H]2O[C@@](C)(C(F)(F)F)[C@@H](C)[C@H]2c2ccc(F)c(F)c2OC[C@@H](C)N2CC3(COC3)C2)ccn1 [Compound 41, 4-((2R,3S,4S,5R)-3-(2-((R)-2-(2-oxa-6-azaspiro[3.3]heptan-6-yl)propoxy)-3,4-difluorophenyl)-4,5-dimethyl-5-(trifluoromethyl)tetrahydrofuran-2-carboxamido)-N-methylpicolinamide] | 100 to 1000 nM
C[C@H]1[C@@H](c2ccc(F)c(F)c2OCCN2C3CCC2COC3)[C@H](C(=O)Nc2ccnc(C(N)=O)c2)O[C@@]1(C)C(F)(F)F [Compound 113, 4-((2R,3S,4S,5R)-3-(2-(2-(3-oxa-8-azabicyclo[3.2.1]octan-8-yl)ethoxy)-3,4-difluorophenyl)-4,5-dimethyl-5-(trifluoromethyl)tetrahydrofuran-2-carboxamido)picolinamide] | 10 to 100 nM
COCC[C@@]1(C)C[C@H](c2ccc(F)c(F)c2OC)[C@@H](C(=O)Nc2ccnc(C(N)=O)c2)O1 (single isomer, unassigned) [Compound 31] | 100 to 1000 nM
C[C@@H](CO)COc1c([C@H]2[C@H](C(=O)Nc3ccnc(C(N)=O)c3)O[C@@](C)(C(F)(F)F)[C@H]2C)ccc(F)c1F [Compound 81, 4-((2R,3S,4S,5R)-3-(3,4-difluoro-2-((S)-3-hydroxy-2-methylpropoxy)phenyl)-4,5-dimethyl-5-(trifluoromethyl)tetrahydrofuran-2-carboxamido)picolinamide] | < 10 nM
C[C@H]1[C@@H](c2ccc(F)c(F)c2OCCN2CCOC3CC32)[C@H](C(=O)Nc2ccnc(C(N)=O)c2)O[C@@]1(C)C(F)(F)F (stereo partly drawn) [Compound 50, 4-((2R,3S,4S,5R)-3-(2-(2-(2-oxa-5-azabicyclo[4.1.0]heptan-5-yl)ethoxy)-3,4-difluorophenyl)-4,5-dimethyl-5-(trifluoromethyl)tetrahydrofuran-2-carboxamido)picolinamide] | < 10 nM
C[C@H]1[C@@H](c2ccc(F)c(F)c2OCCCO)[C@H](C(=O)Nc2ccnc(C(N)=O)c2)O[C@@]1(C)C(F)(F)F [Compound 72, 4-((2R,3S,4S,5R)-3-(3,4-difluoro-2-(3-hydroxypropoxy)phenyl)-4,5-dimethyl-5-(trifluoromethyl)tetrahydrofuran-2-carboxamido)picolinamide] | < 10 nM
CON=C(C)COc1c([C@H]2[C@H](C(=O)Nc3ccnc(C(N)=O)c3)O[C@@](C)(C(F)(F)F)[C@H]2C)ccc(F)c1F [Compound 193, 4-((2R,3S,4S,5R)-3-(3,4-difluoro-2-(2-(methoxyimino)propoxy)phenyl)-4,5-dimethyl-5-(trifluoromethyl)tetrahydrofuran-2-carboxamido)picolinamide] | < 10 nM
COc1c([C@H]2[C@H](C(=O)Nc3ccnc(C(=O)N[C@H]4CNCC[C@H]4OC)c3)O[C@@](C)(C(F)(F)F)[C@H]2C)ccc(F)c1F [Compound 246, 4-((2R,3S,4S,5R)-3-(3,4-difluoro-2-methoxyphenyl)-4,5-dimethyl-5-(trifluoromethyl)tetrahydrofuran-2-carboxamido)-N-((3S,4R)-4-methoxypiperidin-3-yl)picolinamide] | 100 to 1000 nM
COc1c([C@H]2[C@H](C(=O)Nc3ccnc(C(N)=O)c3)O[C@@](C)(C(F)(F)F)[C@H]2C)cc(OC2CC(F)(F)C2)c(F)c1F [Compound 179, 4-((2R,3S,4S,5R)-3-(5-(3,3-difluorocyclobutoxy)-3,4-difluoro-2-methoxyphenyl)-4,5-dimethyl-5-(trifluoromethyl)tetrahydrofuran-2-carboxamido) picolinamide] | 100 to 1000 nM
C/C(COc1c([C@H]2[C@H](C(=O)Nc3ccnc(C(N)=O)c3)O[C@@](C)(C(F)(F)F)[C@H]2C)ccc(F)c1F)=N\O [Compound 185, 4-((2R,3S,4S,5R)-3-(3,4-difluoro-2-((E)-2-(hydroxyimino)propoxy)phenyl)-4,5-dimethyl-5-(trifluoromethyl)tetrahydrofuran-2-carboxamido)picolinamide] | < 10 nM
CC1CN(CCOc2c([C@H]3[C@H](C(=O)Nc4ccnc(C(N)=O)c4)O[C@@](C)(C(F)(F)F)[C@H]3C)ccc(F)c2F)CCO1 (stereo partly drawn) [Compound 51, 4-((2R,3S,4S,5R)-3-(3,4-difluoro-2-(2-(2-methylmorpholino)ethoxy)phenyl)-4,5-dimethyl-5-(trifluoromethyl)tetrahydrofuran-2-carboxamido)picolinamide] | < 10 nM
C[C@@H]1[C@H](c2ccc(F)c3c2CCC3(F)F)[C@@H](C(=O)Nc2ccnc(C(N)=O)c2)O[C@]1(C)C(F)(F)F (single isomer, unassigned) [Compound 148] | ≥ 1000 nM
CC1C(c2ccc(F)c(F)c2OC2CC(O)C2)C(C(=O)Nc2ccnc(C(N)=O)c2)OC1(C)C(F)(F)F [Compound 166, 4-((2R,3S,4S,5R)-3-(3,4-difluoro-2-((1s,3R)-3-hydroxycyclobutoxy)phenyl)-4,5-dimethyl-5-(trifluoromethyl)tetrahydrofuran-2-carboxamido)picolinamide] | < 10 nM
C[C@H]1[C@@H](c2ccc(F)c(F)c2OCC2(F)COC2)[C@H](C(=O)Nc2ccnc(C(N)=O)c2)O[C@@]1(C)C(F)(F)F [Compound 64, 4-((2R,3S,4S,5R)-3-(3,4-difluoro-2-((3-fluorooxetan-3-yl)methoxy)phenyl)-4,5-dimethyl-5-(trifluoromethyl)tetrahydrofuran-2-carboxamido)picolinamide] | < 10 nM
COc1c([C@H]2[C@H](C(=O)Nc3ccnc(C(=O)N(C)[C@H]4CNC[C@@H]4OC)c3)O[C@@](C)(C(F)(F)F)[C@H]2C)ccc(F)c1F [Compound 247, 4-((2R,3S,4S,5R)-3-(3,4-difluoro-2-methoxyphenyl)-4,5-dimethyl-5-(trifluoromethyl)tetrahydrofuran-2-carboxamido)-N-((3S,4S)-4-methoxypyrrolidin-3-yl)-N-methylpicolinamide] | < 10 nM
C[C@H]1[C@@H](c2ccc(F)c(F)c2OC2CCOCC2)[C@H](C(=O)Nc2ccnc(C(N)=O)c2)O[C@@]1(C)C(F)(F)F [Compound 65, 4-((2R,3S,4S,5R)-3-(3,4-difluoro-2-((tetrahydro-2H-pyran-4-yl)oxy)phenyl)-4,5-dimethyl-5-(trifluoromethyl)tetrahydrofuran-2-carboxamido)picolinamide] | < 10 nM
C[C@H]1[C@@H](c2ccc(F)c(F)c2OCCNCC(F)F)[C@H](C(=O)Nc2ccnc(C(N)=O)c2)O[C@@]1(C)C(F)(F)F [Compound 112, 4-((2R,3S,4S,5R)-3-(2-(2-((2,2-difluoroethyl)amino)ethoxy)-3,4-difluorophenyl)-4,5-dimethyl-5-(trifluoromethyl)tetrahydrofuran-2-carboxamido)picolinamide] | < 10 nM
C[C@H]1[C@@H](c2ccc(F)c(F)c2OC2CC(=NO)C2)[C@H](C(=O)Nc2ccnc(C(N)=O)c2)O[C@@]1(C)C(F)(F)F (stereo partly drawn) [Compound 192, 4-((2R,3S,4S,5R)-3-(3,4-difluoro-2-(3-(hydroxyimino)cyclobutoxy)phenyl)-4,5-dimethyl-5-(trifluoromethyl)tetrahydrofuran-2-carboxamido)picolinamide] | < 10 nM
C[C@H]1[C@@H](c2ccc(F)c(F)c2OCCC(C)(C)O)[C@H](C(=O)Nc2ccnc(C(N)=O)c2)O[C@@]1(C)C(F)(F)F [Compound 100, 4-((2R,3S,4S,5R)-3-(3,4-difluoro-2-(3-hydroxy-3-methylbutoxy)phenyl)-4,5-dimethyl-5-(trifluoromethyl)tetrahydrofuran-2-carboxamido)picolinamide] | 10 to 100 nM
COc1c([C@H]2[C@H](C(=O)Nc3ccnc(C(=O)N4C[C@@H](N)[C@H](F)C4)c3)O[C@@](C)(C(F)(F)F)[C@H]2C)ccc(F)c1F [Compound 258, (2R,3S,4S,5R)-N-(2-((3R,4R)-3-amino-4-fluoropyrrolidine-1-carbonyl)pyridin-4-yl)-3-(3,4-difluoro-2-methoxyphenyl)-4,5-dimethyl-5-(trifluoromethyl)tetrahydrofuran-2-carboxamide] | < 10 nM
COc1c([C@H]2[C@H](C(=O)Nc3ccnc(C(=O)N4CCO[C@H]5CNC[C@H]54)c3)O[C@@](C)(C(F)(F)F)[C@H]2C)ccc(F)c1F [Compound 243, (2R,3S,4S,5R)-3-(3,4-difluoro-2-methoxyphenyl)-4,5-dimethyl-N-(2-((4aR,7aS)-octahydropyrrolo[3,4-b][1,4]oxazine-4-carbonyl)pyridin-4-yl)-5-(trifluoromethyl)tetrahydrofuran-2-carboxamide] | < 10 nM
CNC(=O)c1cc(NC(=O)[C@@H]2O[C@@](C)(C(F)(F)F)[C@@H](C)[C@H]2c2ccc(F)c(F)c2OCCO)cc[n+]1[O-] [Compound 84, 4-((2R,3S,4S,5R)-3-(3,4-difluoro-2-(2-hydroxyethoxy)phenyl)-4,5-dimethyl-5-(trifluoromethyl)tetrahydrofuran-2-carboxamido)-2-(methylcarbamoyl)pyridine 1-oxide] | 10 to 100 nM
